Measured values reported in patent US8278074B2, “L-glutamic acid-producing microorganism and a method for producing L-glutamic acid” (priority 2004, dated 2012).

How the values were obtained:
Type in all cases: cell-based, Corynebacterium glutamicum
[1] = tested on: mutant-type yggB gene-introduced strains (ATCC13869-L30 strain, ATCC13869-A1 strain); test: Resistance to 4-fluoroglutamic acid on a solid medium; settings: minimum plate medium, 7.5 mM 4-fluoroglutamic acid, 31.5° C., compared with wild-type ATCC13869 strain (FIG. 6)
Description: 4-fluoroglutamic acid solution which was adjusted to pH6.7 with NaOH and sterilized with filtration was added to the minimum medium described in Example 4 so that the final concentration of 4-fluoroglutamic acid was 7.5 mM. Each of the ATCC13869 strain, ATCC13869-L30 strain, and ATCC13869-A1 strain was spread over the CM-Dex plate and cultured overnight.

ATCC13869-A1 strain = test: Resistance to 4-fluoroglutamic acid in a liquid medium; settings: minimum liquid medium, 1.25 mM to 20 mM 4-fluoroglutamic acid, 31.5° C., culture without 4-fluoroglutamic acid set to 1 (FIG. 7)
Description: (§1) 4-fluoroglutamic acid was added into the minimum liquid medium having the same composition as described in Example 4 but not containing agar to the final concentration of 1.25 mM, 2.5 mM, 5 mM, 10 mM, and 20 mM, respectively. Each of the ATCC13869 strain, ATCC13869ΔyggB strain, ATCC13869-L30 strain, and ATCC13869-A1 strain was spread over a CM-Dex plate and cultured at 31.5° C. overnight. Then, cells were collected, and after washing with the sterilized 0.85% NaCl solution, inoculated into the liquid medium and cultured at 31.5° C. with shaking. When the OD660 of each strain cultured without 4-fluoroglutamic acid reached 1.0, the culture was terminated and the obtained culture solution was diluted appropriately and spread over the CM-Dex plate overnight. The number of colonies which appeared were calculated and designated as a viable cell number.

ATCC13869-L30 strain = test: as above; settings: minimum liquid medium, 1.25 mM to 20 mM 4-fluoroglutamic acid, 31.5° C., culture without 4-fluoroglutamic acid set to 1 (FIG. 7)
Description: as §1

SMILES: N[C@@H](CC(F)C(=O)O)C(=O)O (stereo partly drawn) [4-fluoroglutamic acid]
- growth in the presence of 4-fluoroglutamic acid [1]: grow faster than wild-type ATCC13869 strain
- sensitivity to 4-fluoroglutamic acid (relative viable cell number) (ATCC13869-A1 strain): decreased sensitivity
- sensitivity to 4-fluoroglutamic acid (relative viable cell number) (ATCC13869-L30 strain): decreased sensitivity
